Results as given in the OPERA property sets (Mansouri et al. 2018).
Values after ≈ are worked out from the molar mass of the structure shown. Where a SMILES comes first, the peptide text is derived from it.

Conditions: not given

Compound | logP | solubility [mM]
COC(=O)c1ccccc1C(=O)OC | 1.6 | –
CC[N+](CC)(CC)CC.[Cl-] | -3.15 | –
CC1(C)C=C(C(=O)NCCCN2C(=O)c3ccccc3C2=O)C(C)(C)N1 | 1.58 | –
CCCCN(CCOC(C)=O)c1ccc(N=Nc2c(C#N)cc([N+](=O)[O-])cc2C#N)c(C)c1 | 5.5 | 1.32e-06 (≈ 5.9e-07 mg/mL)
Brc1cc2oc3cc(Br)c(Br)cc3c2cc1Br | 6.1 | 0.000145 (≈ 7e-05 mg/mL)
COc1cccc(OC)c1OCCN(C)C | 1.05 | –
CSc1nc(C(Cl)(Cl)Cl)nc(C(Cl)(Cl)Cl)n1 | 4.42 | –
Clc1ccc2cccc(Cl)c2c1 | 4.56 | –
N#CCCl | – | 1320 (≈ 100 mg/mL)
CC(C)(O)C(=O)Nc1ccc(Cl)cc1 | 2 | –
COc1ccc2c3c1O[C@H]1[C@@H](O)C=C[C@H]4[C@@H](C2)NCC[C@@]341 | 0.69 | –
CN(C)CCc1ccccn1 | 1.12 | –
c1ccc2cc3c4ccccc4c4ccccc4c3cc2c1 | 6.41 | –
CC1=NS(=O)(=O)c2cccnc2N1 | -0.25 | –
C#CCN(C)C(C)Cc1ccc(F)cc1 (stereo not given) | 3 | –
CC(NC(CCc1ccccc1)C(=O)O)C(=O)N1C(C(=O)O)CC2CCCC21 (stereo not given) | 0.22 | –
N#CCCCCCCCCC#N | 1.75 | –
ClC=C1C2CC(C(Cl)C2(Cl)Cl)C1(C(Cl)Cl)C(Cl)Cl (stereo not given) | 5.49 | –
CN1C(=O)C(O)CC1c1cccnc1 (stereo not given) | -1.45 | –
CCCNC(=O)CCC(NS(=O)(=O)c1ccccc1)C(=O)O (stereo not given) | 0.01 | –
O=[N+]([O-])c1ccc2c(c1)Cc1ccccc1-2 | 3.37 | –
CCCCC(C)O (stereo not given) | 1.76 | –
CC1CCCCN1CCCOC(=O)c1ccc(Cl)c(Cl)c1 (stereo not given) | – | 0.0606 (≈ 0.02 mg/mL)
COc1c(Cl)c(Cl)c(Cl)c(Cl)c1Cl | 5.45 | –
Clc1ccc(Nc2cc3nc4ccccc4n(-c4ccc(Cl)cc4)c-3cc2=NCC2CCNCC2)cc1 | 6.44 | –

Compound | logP | solubility [mM]
Cc1cc(Cl)ccc1OCC(=O)OCCCCCC(C)C | 6.7 | –
O=C(O)CC[Se]Cc1ccccc1 | 1.67 | –
CC(=O)CC(C)C | 1.31 | –
O=C(O)CCOc1cccc2ccccc12 | 3 | –
N#CCCCCC#N | -0.32 | –
CC(=O)CCC(C)C | 1.88 | –
CC(=O)N[C@@H](CC(C)C)C(=O)N[C@H](C(=O)N[C@@H](CC(C)C)C(N)=O)[C@@H](C)O (Ac-Leu-Thr-Leu-NH2) | 0.24 | –
COC(=O)C(C#N)=Cc1ccco1 | 1.65 | –
Cc1ccc2oc(N(N)CCC#N)nc2c1 | 1.48 | –
Nc1ccc([N+](=O)[O-])cc1Cl | 2.14 | –
O=[N+]([O-])c1c(Cl)cc(Cl)cc1Cl | 3.69 | –
CCCC(C)C(=O)O (stereo not given) | 1.8 | –
CN(C)c1cnn(-c2ccccc2)c(=O)c1Cl | 1.55 | –
CN(C)C1CSSC1 | – | 13.4 (≈ 2 mg/mL)
CC(=O)Nc1ccc2c(c1)Cc1cc([N+](=O)[O-])ccc1-2 | 3.08 | –
Nc1c(Cl)c(Cl)c(N)c2c1C(=O)c1ccccc1C2=O | 4.56 | –
COc1ccccc1OCC(O)CO (stereo not given) | 1.39 | –
O=C(Nc1ccc(Cl)cc1)c1cccc([N+](=O)[O-])c1O | 2.16 | –
Cc1c(Cl)cccc1[N+](=O)[O-] | 3.09 | –
O=c1[nH]cnc2c1ncn2C1CC(O)C(CO)O1 (stereo not given) | -1.71 | –
Cn1cnc(I)c1[N+](=O)[O-] | 1.29 | –
Cc1cccc(C)c1C | – | 0.626 (≈ 0.0752 mg/mL)
Cc1cccc([N+](=O)[O-])c1C | 2.83 | –
COC(=O)C(C)=CC1C(C(=O)OC)C1(C)C (stereo not given) | 2.67 | –
Cc1c(CNc2ccccc2)cnc2nc(N)nc(N)c12 | 2.02 | –

Compound | logP | solubility [mM]
O=C(OCCOCCOCCO)c1ccccc1 | 1.09 | –
Cc1cc(OCCN(C)C)c(C(C)C)cc1O | 2.93 | –
CC(C)C1(C)N=C(c2ncccc2C(=O)O)NC1=O (stereo not given) | 0.22 | –
N=C(N)NN=Cc1ccc([N+](=O)[O-])cc1 | 0.87 | –
COCCNCc1cc2cc(S(N)(=O)=O)sc2s1 | 0.32 | –
COC(=O)[C@@H](N)Cc1ccc(O)cc1 | 0.29 | –
C[N+](C)(C)CCCl.[Cl-] | -3.8 | –
Cc1ccc(N)cc1C | 1.84 | –
CCNC(=O)Nc1ncc([N+](=O)[O-])s1 | – | 1.39 (≈ 0.3 mg/mL)
CCOC(=O)COc1cccc2ccccc12 | 2.9 | –
CC1(C2=CCCCC2)C(=O)NC(=O)NC1=O | 1.6 | –
CC(=O)OCCOCn1cnc2c(=O)[nH]c(N)nc21 | -1.07 | –
CCNC(N)=S | -0.21 | –
OCCOc1cccc2ccccc12 | 2.5 | –
CCOC1OC2OC3(C)CC(OC4OC(C(=O)O)C(O)C(O)C4O)C4C(C)CCC(C1C)C24OO3 (stereo not given) | 1.73 | –
C=CCC1(CC(C)O)C(=O)NC(=O)NC1=O (stereo not given) | -0.05 | –
O=[N+]([O-])c1c(Cl)ncnc1Cl | 2.29 | –
NC(=O)CCCN=C(c1ccc(Cl)cc1)c1cc(F)ccc1O | 3.06 | –
O=[N+]([O-])c1c2ccccc2cc2ccccc12 | 4.78 | –
CC(=NNC(N)=Nc1ccccc1)c1ccccc1 | 2.18 | –
CN1CC=C(c2ccncc2)CC1 | 1.25 | –
OCCN1CC=C(c2ccccc2)CC1 | 2 | –
C=CCN(CC=C)CC=C | – | 18.2 (≈ 2.5 mg/mL)
COc1nc(NC(C)C)nc(NC(C)C)n1 | 2.99 | –
CC(C)c1ccccc1-c1ccccc1 | 5.2 | –

Compound | logP | solubility [mM]
CCC(=O)OCN1C(=O)NC(c2ccccc2)(c2ccccc2)C1=O | 2.8 | –
Cc1cccc(Nc2ccccc2C(=O)O)c1 | 4.88 | –
c1ccc2c(c1)ccc1nc3ccc4ccccc4c3cc12 | 5.63 | –
CCn1ccc(=O)c(O)c1 | -0.4 | –
CCN(CC)CCN=c1cc2n(-c3ccc(Cl)cc3)c3ccccc3nc-2cc1Nc1ccc(Cl)cc1 | 7.97 | –
O=C(Nc1ccc(O)cc1)C(Cl)Cl | 1.6 | –
CC[n+]1c(-c2ccccc2)c2cc(N)ccc2c2ccc(N)cc21.[Br-] | – | 50.7
CC(C)/N=c1/cc2n(-c3ccc(Cl)cc3)c3ccccc3nc-2cc1Nc1ccc(Cl)cc1 | 7.66 | –
NC(=O)c1ccccc1NCC(O)CO (stereo not given) | -0.8 | –
COc1ccc(C(=O)CCCC(=O)O)cc1Cl | 2.17 | –
CCCC(CCC)=NNC(N)=Nc1ccccc1 | 2.33 | –
O=C1C2=C(CCCC2)C(=O)N1c1ccc(Cl)cc1 | 3.32 | –
Cc1ccc(S(=O)(=O)N(C)C(=O)c2ccccc2)cc1 | 2.95 | –
Clc1cc(Cl)c2[nH]c3c(Cl)cc(Cl)cc3c2c1 | 5.75 | –
CN1CC(C(=O)O)CC1=O (stereo not given) | -1.5 | –
ClCC1(CCl)C2CC(Cl)(Cl)C1(C(Cl)Cl)CC2(Cl)Cl (stereo not given) | 5.79 | –
CCC(=O)OC | 0.84 | –
COc1cccc(C=O)c1 | 1.71 | –
CC(=O)Nc1ccc(C(=O)O)c(O)c1 | 1.62 | –
ClC=C1C2CC(C(Cl)C2Cl)C1(CCl)C(Cl)Cl (stereo not given) | 5.45 | –
Oc1cccc(N=C=S)c1 | 3.23 | –
Sc1nc2ccccc2s1 | 2.42 | –

Same assay, conditions: 20 °C

Compound | solubility [mM]
CNC(=N)N | 24.4 (≈ 1.78 mg/mL)
CCNc1nc(NCC)nc(OC)n1 | 16.2 (≈ 3.2 mg/mL)
CCOS(=O)(=O)OCC | 45.4 (≈ 7 mg/mL)
N#CCCCCC#N | 740 (≈ 80 mg/mL)
NC(=O)c1ccccc1C(N)=O | 3.66 (≈ 0.6 mg/mL)
CC(C)(CO)[N+](=O)[O-] | 29400 (≈ 3500 mg/mL)
CCC#CC(C)O (stereo not given) | 387 (≈ 38 mg/mL)
CCCC(C)C(=O)O (stereo not given) | 129 (≈ 15 mg/mL)
CCCC(CCC)C(=O)O | 13.9 (≈ 2 mg/mL)
C=COC | 258 (≈ 15 mg/mL)
C=COCC(C)C | 30 (≈ 3 mg/mL)
CCOC(C)(C)CC | 3.44 (≈ 0.4 mg/mL)

Same assay, conditions: 22.0 °C

Compound | log10 OH rate constant (cm³/molecule/s)
Cc1ccc(C(C)C)cc1 | -10.8

Same assay, conditions: 23 °C

Compound | solubility [mM]
Clc1ccc(Cl)c(-c2ccc(Cl)c(Cl)c2)c1 | 0.000136 (≈ 3.97e-05 mg/mL)

Same assay, conditions: 23.0 °C

Compound | log10 OH rate constant (cm³/molecule/s)
CCC(=O)CO | -11.1
CC(=O)C(C)O (stereo not given) | -11
C=C1C2CCC(C2)C1(C)C (stereo not given) | -10.3
CCC(C)(O)CC(C)C (stereo not given) | -10.9

Same assay, conditions: 24 °C

Compound | solubility [mM]
CC1CN(N=O)CC(C)O1 (stereo not given) | 860 (≈ 124 mg/mL)
Sc1nc2ccccc2s1 | 0.658 (≈ 0.11 mg/mL)

Same assay, conditions: 24.0 °C

Compound | log10 OH rate constant (cm³/molecule/s)
Clc1cccc(-c2cccc(Cl)c2)c1 | -11.4

Same assay, conditions: 25 °C

Compound | solubility [mM]
COC(=O)c1ccccc1C(=O)OC | 20.6 (≈ 4 mg/mL)
Clc1ccc(-c2ccccc2Cl)cc1 | 0.00524 (≈ 0.00117 mg/mL)
CCCCC(C=O)CC (stereo not given) | 3.12 (≈ 0.4 mg/mL)
CN(C)c1ccc(N=NS(=O)(=O)[O-])cc1.[Na+] | 79.6
CCCCCCCCOP(=O)(Oc1ccccc1)Oc1ccccc1 | 0.000386 (≈ 0.00014 mg/mL)
O=C(O)CCC1CCCC1 | 17 (≈ 2.42 mg/mL)
Clc1cc2c(oc3c(Cl)c(Cl)c(Cl)c(Cl)c32)c(Cl)c1Cl | 3.3e-09 (≈ 1.35e-09 mg/mL)
CCOC(=O)N(C)N=O | 280 (≈ 37 mg/mL)
Cc1cccc(C)c1N | 68 (≈ 8.24 mg/mL)
O=C(Oc1ccccc1)c1ccccc1C(=O)Oc1ccccc1 | 0.000258 (≈ 8.2e-05 mg/mL)
NNC(=O)c1ccncc1 | 1020 (≈ 140 mg/mL)
c1ccc(OCC2CO2)cc1 (stereo not given) | 16 (≈ 2.4 mg/mL)
COc1ccccc1OCC(O)CO (stereo not given) | 252 (≈ 50 mg/mL)
O=C(O)c1ccc(C(=O)O)c(C(=O)O)c1 | 99.9 (≈ 21 mg/mL)
CCCN(CCC)c1c([N+](=O)[O-])cc(C(C)C)cc1[N+](=O)[O-] | 0.000339 (≈ 0.000105 mg/mL)
O=[N+]([O-])c1c2ccccc2cc2ccccc12 | 0.000511 (≈ 0.000114 mg/mL)
Cc1ccc(C(C)C)cc1 | 0.174 (≈ 0.0234 mg/mL)
CC(C)c1ccccc1-c1ccccc1 | 0.00306 (≈ 0.0006 mg/mL)
CC(=O)c1ccc(-c2ccccc2)cc1 | 0.489 (≈ 0.096 mg/mL)
CSc1ccccc1 | 4.07 (≈ 0.506 mg/mL)
CCC(=O)OC | 708 (≈ 62.4 mg/mL)

Same assay, conditions: 25.0 °C

Compound | log10 OH rate constant (cm³/molecule/s)
c1cc2ccc3cccc4ccc(c1)c2c34 | -10.3
FC(C(F)(F)F)C(F)(F)F | -14.8
ClCCCCl | -12.1
CCOS(=O)(=O)OCC | -11.7
CC(C)OCCO | -10.7
CC(=O)CCC(C)C | -11
FC(F)=C(F)C(F)(F)F | -11.7
CCC(C)Cl (stereo not given) | -11.6
CCOC(F)(F)C(F)F | -12.6
OC(C(F)(F)F)C(F)(F)F | -13.6
COCCOC | -10.6
CC(=O)C=CC=O | -10.3
C=CCOC(F)(F)C(F)F | -10.7
CCCBr | -11.9
Oc1ccc2ccccc2c1 | -9.77
Cc1cc2ccccc2cc1C | -10.2
CCNc1nc(Cl)nc(NCC)n1 | -11

Same assay, conditions: 27.0 °C

Compound | log10 OH rate constant (cm³/molecule/s)
CCC(=O)NC | -11.1
O=Cc1ccco1 | -10.5
CNC(C)=O | -11.3

Same assay, conditions: 30 °C

Compound | solubility [mM]
CCOC(=O)CCl | 158 (≈ 19.4 mg/mL)
CN(C)C | 15100 (≈ 890 mg/mL)
Nc1ccccc1[N+](=O)[O-] | 10.6 (≈ 1.47 mg/mL)

Same assay, conditions: pH 7.4

Compound | logD
COc1c(C)c2c(c(O)c1C/C=C(\C)CCC(=O)OCCN1CCOCC1)C(=O)OC2 | 2.38
